Measurements taken from US8168650B2, “Therapeutic uses of bicyclic ligands of sigma 2 receptor” (priority 2006, dated 2012).
Where two headings read alike, the source gives them in different places.

Legend:
σ2 receptor = target: T1, σ2 receptor (Rattus norvegicus, UniProt Q5U3Y7); assay: σ2 receptor binding assay, [3H]DTG or [3H]RHM-1; settings: for σ1/σ2 Ratio: Ki for σ1/Ki for σ2
T1 construct: from tissue; host or cells: rat liver membrane homogenates
T1 sequence (Q5U3Y7 1-176): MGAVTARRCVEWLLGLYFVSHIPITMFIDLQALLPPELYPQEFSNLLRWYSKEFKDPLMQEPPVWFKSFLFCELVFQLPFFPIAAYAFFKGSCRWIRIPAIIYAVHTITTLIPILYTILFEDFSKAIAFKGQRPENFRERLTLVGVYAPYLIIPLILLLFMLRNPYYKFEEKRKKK
Protocol: (§2) In vitro binding studies were conducted in order to determine the affinity of the target compounds at σ1 and σ2 receptors.
(§3) In this example, test compounds were dissolved in N,N-dimethylformamide (DMF), dimethylsulfoxide (DMSO) or ethanol and then diluted in 50 mM Tris-HCl, pH 7.4 buffer containing 150 mM NaCl and 100 mM EDTA. Membrane homogenates were made from guinea pig brain for σ1 binding assays and rat liver for σ2 binding assays. Membrane homogenates were diluted with 50 mM Tris-HCl buffer, pH 8.0, and incubated at 25° C. in a total volume of 150 μL in 96-well plates with the radioligand and test compounds with concentrations ranging from 0.1 nM to 10 μM. After incubation was completed, the reactions were terminated by the addition of 150 μL of ice-cold wash buffer (10 mM Tris-HCl, 150 mM NaCl, pH 7.4) using a 96-channel transfer pipette (Fisher Scientific, Pittsburgh, Pa.), and the samples harvested and filtered rapidly through 96-well fiberglass filter plate (Millipore, Billerica, Mass.) that had been presoaked with 100 μL of 50 mM Tris-HCl buffer, pH 8.0, for 1 h. Each filter was washed three times with 200 μL of ice cold wash buffer.
(§4) Ki values were calculated using the method of Cheng and Prusoff20 and represent mean values±SEM.

[1] = test system: MDA-MB-435 breast cancer cells; assay: Cytotoxicity assay (MTS) in MDA-MB-435 cells; type: cell-based; settings: Homo sapiens
Protocol: Cytotoxicity assay. The cytotoxic effect of the sigma ligands on EMT-6 cells was measured using the MTS colorimetric assay. MTS is bioreduced by cells into a colored formazan product with an absorbance at 490 nm. The quantity of the products is directly proportional to the number of viable cells in the culture. The MTS assay was performed using the CellTiter96Aqueous One Solution Assay (Promega, Madison, Wis.) according to the manufacturer's protocol. Briefly, EMT-6 cells were seeded at 2×10^3/well in 96-well plates on the day prior to treatment with the sigma ligand. Each sigma ligand was first dissolved in DMSO, and then serially diluted to get the desired concentration. The final concentration of DMSO in the cell culture medium was no more than 0.5%. After a 24 hour or 48 hour treatment with the various sigma ligands, cell death was assessed as follows. The CellTiter 96 AQueous One Solution Reagent was added to each well, and the plate was incubated for 2 hours at 37° C. The plate was then read at 490 nm in a Victor 3 plate reader (PerkinElmer Life and Analytical Sciences, Shelton, Conn.).
In these experiments, sigma ligands WC-II-26, SV119 and RHM-I-138 were evaluated for their efficacy to kill human MDA-MB-435 breast cancer cells. Cells were treated and analyzed as described for EMT-6 cells in Example 33. In these experiments cells were incubated for 24 hours or 48 hours with various concentrations of the sigma ligands.

caspase-3/7 = assay: Caspase-3/7 whole cell assay in MDA-MB-435 cells; type: cell-based, human; settings: MDA-MB-435, 24 h
Protocol: FIG. 8 illustrates activation of caspase-3/7 in EMT-6 cells treated with the sigma-2 selective ligands, WC-II-26, SV119, or RHM-I-138. EMT6 cells were treated for 24 h with concentrations of 40 μM. MDA-MB-435 cells were treated with varying concentrations of sigma-2 selective ligands for 24 h. The highest level of caspase-3/7 activity was detected after 24 h in the presence of 80 μM SV119, 80 μM WC-II-26, and 50 μM RHM-I-138. The data are the mean±1 SEM of three independent experiments. p<0.05; * compared to the control.
Detection of intracellular cellular caspase-3/7 activity. The activation of endogenous caspase-3/7 by the sigma ligands was measured using the CellProbe HT caspase-3/7 whole cell assay (Beckman Coulter, Fullerton, Calif.). The cell permeable, nonfluorescent bisamide substrate, Z-DEVD-R110, was added to the intact cells to detect apoptosis. Upon specific cleavage by caspase-3/7, Z-DEVD-R110 is converted to a fluorescent compound, and the fluorescent signal can be measured as follows. After adding the substrate, Z-DEVD-R110, to the cells treated with a sigma ligand, the plate was incubated for an additional 1.5-2 hour, and the resulting fluorescence measured using a Victor 3 microplate fluorometer at excitation and emission wavelengths of 485 nm and 535 nm, respectively.

EMT-6 cells [2] = assay: TUNEL staining of DNA fragmentation in EMT-6 cells (microscopy, flow cytometry); type: cell-based, mouse; settings: for TUNEL positive cells (flow cytometry): untreated control 2%; for DNA fragmentation, TUNEL staining in nuclei (fluorescence microscopy): EMT-6, WC-II-26 40 μM 48 h, SV119 100 μM 16 h, RHM-I-138 40 μM 16 h
Protocol: Detection of apoptosis by fluorescence microscopy. The DNA fragmentation occurring during apoptosis was detected by the TUNEL staining method using the in situ cell death detection kit purchased from Roche Applied Science (Indianapolis, Ind.). Briefly, after treatment of EMT-6 cells with the sigma ligands, cells were fixed for 1 hour with 4% paraformaldehyde in phosphate buffered saline at room temperature and permeabilized with 0.1% Triton X-100 for 2 minutes on ice. The cells were then labeled by incubation with the TUNEL reaction mixture for 1 hour at 37° C. and analyzed using a Nikon inverted fluorescence microscope with a FITC filter.
(§1) Detection and quantification of apoptosis by flow cytometry. The early stages of apoptosis are characterized by translocation of phosphatidyl serine (PS) from the inner surface of the plasma membrane to the outer surface of the membrane. Annexin V, a protein with high affinity for PS, was used to detect the externalization of PS. In these experiments cell death was quantified flow cytometrically using both an annexin V assay (Apoptosis Detection Kit, R &D Systems, Minneapolis, Minn.) and a TUNEL assay (Apodirect Kit, BD Biosciences Pharmingen, San Diego, Calif.). All of the data was collected and analyzed using a FACS scan flow cytometer (Becton Dickinson, Fullerton, Calif.).
To determine if the mechanism by which our σ2 selective ligands kill EMT-6 cells involves apoptosis, cells incubated with σ2 ligands were assayed by the TUNEL method. […] In these experiments, DNA fragmentation was detected by TUNEL staining and fluorescence microscopy (FIG. 6). Panel A: untreated cells. Panel B: Cells treated for 48 h with WC-II-26 (40 μM). Panel C: Cells treated for 16 h with SV119 (100 μM). Panel D: Cells treated for 16 h with RHM-I-138 (40 μM). […] At the designated times after treatment with WC-II-26, SV119 and RHM-I-138, TUNEL positive cells increased from 2% for the untreated control cells to 46%, 37% and 40%, respectively (FIG. 6B).

EMT-6 cells [3] = assay: Annexin V labeling by flow cytometry in EMT-6 cells; type: cell-based, mouse
Excerpt: as §1
An early step in the induction of apoptosis is the membrane inversion of phosphatidyl serine (PS), which can be detected by the binding of annexin V to the cell surface. In early apoptosis, the cell membrane integrity is still intact, and the fluorescent marker, 7AAD, is excluded from the cell. Therefore, early apoptotic cells are annexin V positive and 7AAD negative. As apoptosis progresses, the cell membrane integrity is lost, and the cells become annexin V positive and 7AAD positive. EMT-6 cells treated with WC-II-26, SV119, and RHM-1-138 were analyzed by flow cytometry, and both early apoptotic death and late apoptotic death were detected after treatment with these three σ2 selective ligands (FIG. 7A). The percentage of EMT-6 cells with positive annexin V staining was 96.6±2.7%, 73.5±2.4%, and 48±6.4% after treatment with WCII-26, SV119 and RHM-I-138, respectively (FIG. 7B).

σ1 receptor = σ1 receptor (Cavia porcellus, UniProt Q60492); assay: σ1 receptor binding assay, [3H](+)-pentazocine; settings: as listed in Table 2
Protocol: as §2, §3, §4

[4] = Ki for σ2 (nM), as listed in Table 2
[5] = Ki σ2, inhibiting binding of [3H]DTG or [3H]RHM-1 to rat liver homogenates, mean ± SEM
[6] = read-out: IC50 (μM), MDA-MB-435, 24 hours
[7] = MDA-MB-435, 48 hours, read-out: IC50 (μM, 48 hours)

Chain of σ1 receptor (Q60492 whole entry): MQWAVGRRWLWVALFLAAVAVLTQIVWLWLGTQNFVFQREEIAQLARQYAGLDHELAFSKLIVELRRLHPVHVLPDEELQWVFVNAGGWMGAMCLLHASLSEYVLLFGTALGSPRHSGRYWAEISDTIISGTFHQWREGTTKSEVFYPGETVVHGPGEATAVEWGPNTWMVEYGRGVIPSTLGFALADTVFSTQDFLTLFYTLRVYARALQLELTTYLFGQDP

Compound | σ1/σ2 Ratio (σ2 receptor) | Ki (σ2 receptor; [4]) [nM] | Ki (σ2 receptor; [5]) [nM] | IC50 [1, 6] [µM] | IC50 [1, 7] [µM] | concentration at which the highest level of caspase-3/7 activity was detected (caspase-3/7) [µM] | TUNEL positive cells (flow cytometry) (EMT-6 cells [2]; EMT-6, 40 μM, 16 h) [%] | DNA fragmentation, TUNEL staining in nuclei (fluorescence microscopy) (EMT-6 cells [2]) | percentage of EMT-6 cells with positive annexin V staining (EMT-6 cells [3]; 40 μM, 16 h) [%] | Ki (σ1 receptor; read-out: Ki for σ1) [nM] | TUNEL positive cells (flow cytometry) (EMT-6 cells [2]; EMT-6, 100 μM, 16 h) [%] | percentage of EMT-6 cells with positive annexin V staining (EMT-6 cells [3]; 100 μM, 16 h) [%] | Ki (σ1 receptor; Ki for σ1 (nM)) [nM] | TUNEL positive cells (flow cytometry) (EMT-6 cells [2]; EMT-6, 40 μM, 48 h) [%] | percentage of EMT-6 cells with positive annexin V staining (EMT-6 cells [3]; 40 μM, 48 h) [%]
O[C@@H](CN1C2CCC1CC(c1ccccc1)C2)c1cccc(Br)c1 (stereo partly shown) [RHM-I-138] | 44 | 12.3 | 12.3 | 26.7 ± 4.3 | 19 ± 1.8 | 50 | 40 | positive TUNEL staining | 48±6.4 | 544 |  |  |  |  | 
COc1ccc(C)cc1NC(=O)OC1CC2CCCC(C1)N2CCCCCCN (stereo not shown) [SV119] |  | 19.9 |  | 36.7 ± 3.3 | 20.6 ± 2.7 | 80 |  | positive TUNEL staining |  |  | 37 | 73.5±2.4 | 1450 |  | 
COc1ccc(C)cc1NC(=O)O[C@H]1C[C@H]2CCC[C@@H](C1)N2Cc1ccc(N(C)C)cc1 [WC-II-26] | 511 | 10.8 | 10.9 | 51.6 ± 6 | 43.2 ± 2 | 80 |  | positive TUNEL staining |  |  |  |  | 5570 | 46 | 96.6±2.7
